{"source": "ChEMBL document CHEMBL1133190", "about": "“SPR biosensor studies of the direct interaction between 27 drugs and a liposome surface: correlation with fraction absorbed in humans” (J Med Chem, 2000)", "key": {"[1]": {"assay": "Estimation of fraction absorbed (Fa) in the human intestine using biosensor technology.", "assay_type": "ADME, organism-based", "conditions": "in vivo"}, "[2]": {"system": "Liposome", "assay": "(§1) Binding to POPC/GMI liposomes using biosensor system", "assay_type": "functional"}, "[3]": {"system": "Liposome", "assay": "(§2) Binding to POPC (palmitoyl-oleolyl-phosphatidyl-choline) liposomes using biosensor system", "assay_type": "functional"}, "[4]": {"system": "Liposome", "assay": "as §2"}, "[5]": {"system": "Liposome", "assay": "as §1"}}, "data": [{"smiles": "COc1ccc(CCN(C)CCCC(C#N)(c2ccc(OC)c(OC)c2)C(C)C)cc1OC", "note": "(stereo unspecified)", "values": [{"measurement": "Fa", "setting": "[1]", "result": 100, "unit": "%"}]}, {"smiles": "C=CCOc1ccccc1OCC(O)CNC(C)C", "note": "(stereo unspecified)", "values": [{"measurement": "Other", "setting": "[2]", "result": 277}, {"measurement": "Other", "setting": "[3]", "result": 120}]}, {"smiles": "C=CCc1ccccc1OCC(O)CNC(C)C", "note": "(stereo unspecified)", "values": [{"measurement": "Other", "setting": "[2]", "result": 480}, {"measurement": "Other", "setting": "[3]", "result": 297}]}, {"smiles": "CC(C)(C)NCC(O)c1cc(O)cc(O)c1", "note": "(stereo unspecified)", "values": [{"measurement": "Other", "setting": "[4]", "result": 47}, {"measurement": "Other", "setting": "[5]", "result": 117}]}, {"smiles": "CC(C)NCC(O)COc1ccc(CC(N)=O)cc1", "note": "(stereo unspecified)", "values": [{"measurement": "Other", "setting": "[2]", "result": 38}, {"measurement": "Other", "setting": "[3]", "result": 24}]}, {"smiles": "CC(C)NCC(O)COc1cccc2[nH]ccc12", "note": "(stereo unspecified)", "values": [{"measurement": "Other", "setting": "[2]", "result": 314}, {"measurement": "Other", "setting": "[3]", "result": 142}]}, {"smiles": "CCN1CCCC1CNC(=O)c1cc(S(N)(=O)=O)ccc1OC", "note": "(stereo unspecified)", "values": [{"measurement": "Other", "setting": "[2]", "result": 78}, {"measurement": "Other", "setting": "[3]", "result": 47}]}, {"smiles": "COCCc1ccc(OCC(O)CNC(C)C)cc1", "note": "(stereo unspecified)", "values": [{"measurement": "Other", "setting": "[4]", "result": 82}, {"measurement": "Other", "setting": "[5]", "result": 179}]}, {"smiles": "NC[C@H]1CC[C@H](C(=O)O)CC1", "values": [{"measurement": "Other", "setting": "[2]", "result": 14}, {"measurement": "Other", "setting": "[3]", "result": 20}]}, {"smiles": "O=C(O)P(=O)(O)O", "values": [{"measurement": "Other", "setting": "[4]", "result": 32}, {"measurement": "Other", "setting": "[5]", "result": 62}]}, {"smiles": "O=C(O)c1cc(/N=N/c2ccc(S(=O)(=O)Nc3ccccn3)cc2)ccc1O", "values": [{"measurement": "Other", "setting": "[4]", "result": 241}, {"measurement": "Other", "setting": "[5]", "result": 348}]}, {"smiles": "OC[C@@H](O)[C@@H](O)[C@H](O)[C@H](O)CO", "values": [{"measurement": "Other", "setting": "[2]", "result": 29}, {"measurement": "Other", "setting": "[3]", "result": 22}]}, {"smiles": "OC[C@H]1O[C@@H](O[C@@H]2[C@@H](CO)O[C@](O)(CO)[C@H]2O)[C@H](O)[C@@H](O)[C@H]1O", "values": [{"measurement": "Other", "setting": "[2]", "result": 29}, {"measurement": "Other", "setting": "[3]", "result": 22}]}, {"smiles": "OC[C@H]1O[C@H](OC[C@H]2O[C@H](O[C@]3(CO)O[C@H](CO)[C@@H](O)[C@@H]3O)[C@H](O)[C@@H](O)[C@@H]2O)[C@H](O)[C@@H](O)[C@H]1O", "values": [{"measurement": "Other", "setting": "[2]", "result": 34}, {"measurement": "Other", "setting": "[3]", "result": 24}]}, {"smiles": "CC1(C)S[C@@H]2[C@H](NC(=O)[C@H](N)c3ccc(O)cc3)C(=O)N2[C@H]1C(=O)O", "note": "[AMOXICILLIN]", "values": [{"measurement": "Other", "setting": "[2]", "result": 9}, {"measurement": "Other", "setting": "[3]", "result": 17}, {"measurement": "Fa", "setting": "[1]", "result": 90, "unit": "%"}]}, {"smiles": "Cc1cc(=O)n(-c2ccccc2)n1C", "note": "[ANTIPYRINE]", "values": [{"measurement": "Other", "setting": "[2]", "result": 12}, {"measurement": "Other", "setting": "[3]", "result": 19}, {"measurement": "Fa", "setting": "[1]", "result": 100, "unit": "%"}]}, {"smiles": "NC(=O)N1c2ccccc2C=Cc2ccccc21", "note": "[CARBAMAZEPINE]", "values": [{"measurement": "Other", "setting": "[2]", "result": 144}, {"measurement": "Other", "setting": "[3]", "result": 70}, {"measurement": "Fa", "setting": "[1]", "result": 100, "unit": "%"}]}, {"smiles": "CN1CC(=O)NC1=N", "note": "[CREATININE]", "values": [{"measurement": "Other", "setting": "[4]", "result": 22}, {"measurement": "Other", "setting": "[5]", "result": 13}, {"measurement": "Fa", "setting": "[1]", "result": 100, "unit": "%"}]}, {"smiles": "CNCCCN1c2ccccc2CCc2ccccc21", "note": "[DESIPRAMINE]", "values": [{"measurement": "Other", "setting": "[2]", "result": 1200}, {"measurement": "Other", "setting": "[3]", "result": 1010}, {"measurement": "Fa", "setting": "[1]", "result": 100, "unit": "%"}]}, {"smiles": "OC[C@H]1OC(O)[C@H](O)[C@@H](O)[C@@H]1O", "note": "(stereo partly specified) [DEXTROSE]", "values": [{"measurement": "Other", "setting": "[2]", "result": 10}, {"measurement": "Other", "setting": "[3]", "result": 18}, {"measurement": "Fa", "setting": "[1]", "result": 100, "unit": "%"}]}, {"smiles": "NS(=O)(=O)c1cc(C(=O)O)c(NCc2ccco2)cc1Cl", "note": "[FUROSEMIDE]", "values": [{"measurement": "Other", "setting": "[2]", "result": 92}, {"measurement": "Other", "setting": "[3]", "result": 56}, {"measurement": "Fa", "setting": "[1]", "result": 50, "unit": "%"}]}, {"smiles": "NS(=O)(=O)c1cc2c(cc1Cl)NCNS2(=O)=O", "note": "[HYDROCHLOROTHIAZIDE]", "values": [{"measurement": "Other", "setting": "[2]", "result": 95}, {"measurement": "Other", "setting": "[3]", "result": 60}, {"measurement": "Fa", "setting": "[1]", "result": 55, "unit": "%"}]}, {"smiles": "CC(C(=O)O)c1cccc(C(=O)c2ccccc2)c1", "note": "(stereo unspecified) [KETOPROFEN]", "values": [{"measurement": "Other", "setting": "[2]", "result": 101}, {"measurement": "Other", "setting": "[3]", "result": 62}, {"measurement": "Fa", "setting": "[1]", "result": 100, "unit": "%"}]}, {"smiles": "CC(C)C[C@H](N)C(=O)O", "note": "[LEUCINE]", "values": [{"measurement": "Other", "setting": "[4]", "result": 18}, {"measurement": "Other", "setting": "[5]", "result": 11}, {"measurement": "Fa", "setting": "[1]", "result": 100, "unit": "%"}]}, {"smiles": "COc1ccc2cc([C@H](C)C(=O)O)ccc2c1", "note": "[NAPROXEN]", "values": [{"measurement": "Other", "setting": "[4]", "result": 109}, {"measurement": "Other", "setting": "[5]", "result": 183}, {"measurement": "Fa", "setting": "[1]", "result": 100, "unit": "%"}]}, {"smiles": "CC(C)NCC(O)COc1cccc2ccccc12", "note": "(stereo unspecified) [PROPRANOLOL]", "values": [{"measurement": "Other", "setting": "[2]", "result": 839}, {"measurement": "Other", "setting": "[3]", "result": 683}, {"measurement": "Fa", "setting": "[1]", "result": 100, "unit": "%"}]}, {"smiles": "NC(N)=O", "note": "[UREA]", "values": [{"measurement": "Other", "setting": "[4]", "result": 23}, {"measurement": "Other", "setting": "[5]", "result": 26}, {"measurement": "Fa", "setting": "[1]", "result": 100, "unit": "%"}]}]}
